According to PMC8617031, “Development of a BCL-xL and BCL-2 dual degrader with improved anti-leukemic activity,” (Nature Communications, 2021):
“And” between values parts separate entries of the source, which are not always exact repeats. Equal entries are not always repeated.

Tests used:
BCL-2 = target: T1, BCL-2 (Homo sapiens, UniProt P10415); experiment: BCL-2 degradation by immunoblot in 293T cells; format: cell-based; settings: 293T, 16 h, Supplementary Fig. 1b
T1 construct: endogenous in cells
Experimental: (§1) The DC50 and Dmax were calculated using Prism based on the ImageJ-quantified western blots in Supplementary Fig. 4. c, d AlphaLISA assay to determine the formation of BCL-xL/PROTAC/VHL-ELOC-ELOB (VCB) (c) or BCL-2/PROTAC/VCB (d) ternary complex in a cell-free condition. Data represent the mean of a single experiment with 2 technical replicates. Similar results were obtained in one more independent experiment. e, f NanoBRET assays evaluating intracellular BCL-xL/PROTAC/VCB (e) or BCL-2/PROTAC/VCB (f) ternary complex formation. […] Data are expressed as mean ± s.e.m. of three biological replicates. Source data are provided as a Source data file.
(§2) Representative immunoblots are shown in (a–d) and β-actin was used as a loading control in all immunoblot analyses. The normalized protein content in the immunoblots is presented as mean values ± s.e.m. (n = 3 biologically independent experiments) in the bar graph (bottom panel). e, f The formation of BCL-xL/PROTAC/VCB (e) and BCL-2/PROTAC/VCB (f) ternary complexes in a cell-free condition was determined by AlphaLISA assay. Data represent the mean of a single experiment with 2 technical replicates. […] Source data are provided as a Source data file.
(§3) Cells were collected, washed once with ice-cold phosphate-buffered saline, pH 7.2 (PBS, cat. no. 20012027; Thermo Fisher Scientific) and lysed in RIPA lysis buffer (Cat. No. BP-115DG, Boston Bio Products, Ashland, MA, USA) supplemented with protease and phosphatase inhibitor cocktails (Cat. No. PPC1010, Sigma-Aldrich, St. Louis, MO, USA) through sonication. The samples were centrifuged at 14,000 r.p.m. for 5 min and the supernatants were transferred into a new tube. The protein concentration in the supernatants was determined using the Pierce BCA protein Assay kit (cat. no. 23225, Thermo Fisher Scientific). The protein concentration was normalized, and the samples were reduced in 4× Laemmli’s SDS-sample buffer (cat. no. BP-110R, Boston Bio Products) and denatured at 95 °C for 5 min. An equal amount of protein samples (20–40 μg per lane) were resolved using precast 4–20% Tris-glycine gels (Mini-PROTEAN TGX, cat. no. 456–1094, Bio-Rad), and resolved proteins were transferred onto 0.2-µm pore size polyvinylidene difluoride (PVDF) blotting membranes (cat. no. LC2002, Thermo Fisher Scientific) using mini trans-blot electrophoretic transfer cell (Bio-Rad). The membranes were blocked with non-fat dry milk (5% wt/vol) in 1× Tris-buffered saline-Tween-20 (TBST, cat. no. J77500, Affymetrix) for 1 h at room temperature, and were subsequently probed with primary antibodies at a predetermined optimal concentration in non-fat dry milk (5% wt/vol in TBST) overnight at 4 °C. The membranes were washed three times (5 min each) in TBST and then incubated with horse radish peroxidase (HRP)-conjugated secondary antibodies for 1 h at room temperature. Following sufficient washing with TBST, the membranes were exposed with chemiluminescent HRP substrate (cat. no. WBKLS0500, MilliporeSigma), and the signal was detected using the ChemiDoc MP Imaging System (Bio-Rad) and quantified using the ImageJ (v1.53a) software from NIH.

BCL-xL = target: T2, BCL-xL (Homo sapiens, UniProt Q07817); experiment: BCL-xL degradation by immunoblot in 293T cells; format: cell-based; settings: 16 h; for normalized BCL-xL protein content: 293T, Supplementary Fig. 1b
T2 construct: endogenous in cells
Experimental: as §1, §2, §3

[1] = system: BCL-2/PROTAC/VCB ternary complex (HiBit-BCL-2, HaloTag-VHL); experiment: NanoBRET intracellular ternary complex formation in 293T cells, BCL-2; format: cell-based, human; settings: NanoBRET, 293T cells, 6 h
From the text: (§4) Plasmids HaloTag-VHL (Cat. No. CS1679C155) and CMV HiBit (Cat. No. CS1956B03) were purchased from Promega. HiBit-BCL-xL and HiBit-BCL-2 were constructed previously. The two mutants (HiBit-BCL-xL-K157-only and HiBit-BCL-xL-K-ko) were constructed through Gibson assembly method. The primer pair (5′-[…]-3′ and 5′-[…]c[…]-3′) and the template Flag-BCL-xL-K157-only or Flag-BCL-xL-K-ko (pDL2129)[2] were used to clone the BCL-xL-K157-only-containing and BCL-xL-K-ko-containing fragments, respectively. The primer pair (5′-[…]g[…]-3′ and 5′-[…]-3′) and pBit3.1-N (Cat. No. N2361, Promega) were used to clone the vector-containing fragment. The PCR fragments were assembled using NEBuilder® HiFi DNA Assembly Master Mix (Cat. No. E2621, NEB, Ipswich, MA, USA). DNA sequences in all these plasmids were authenticated by automatic sequencing. […] After 24 h, 2 × 10^4 transfected cells were seeded into white 96-well tissue culture plates in Gibco™ Opti-MEM™ I Reduced Serum Medium, No Phenol Red (Cat. No. 11-058-021, Fisher) containing 4% FBS with or without HaloTag NanoBRET 618 Ligand (Cat. No. PRN1662, Promega) and incubated overnight at 37 °C, 5% CO2. The following day, serial diluted compounds were added into the medium and plates were incubated at 37 °C, 5% CO2, for 6 h. After treatment, NanoBRET Nano-Glo Substrate (cat. no. N1662, Promega) was added into the medium, and the contents were mixed by shaking the plate for 30 s before measuring donor and acceptor signals on Biotek plate reader. Dual-filtered luminescence was collected with a 450/50 nm bandpass filter (donor, NanoBiT-BCL-XL protein or NanoBiT-BCL-2 protein) and a 610-nm longpass filter (acceptor, HaloTag NanoBRET ligand) using an integration time of 0.5 s. mBRET ratios were calculated following the NanoBRET™ Nano-Glo® Detection System (Cat. No. N1662, Promega).

[2] = system: BCL-xL/PROTAC/VCB ternary complex (HiBit-BCL-xL, HaloTag-VHL); experiment: NanoBRET intracellular ternary complex formation in 293T cells, BCL-xL; format: cell-based, human; settings: NanoBRET, 293T cells, 6 h
From the text: as §4

[3] = XZ739 concentration 0.003 (unit not given), untreated = 100, 2 replicates

T2 sequence (Q07817 whole entry): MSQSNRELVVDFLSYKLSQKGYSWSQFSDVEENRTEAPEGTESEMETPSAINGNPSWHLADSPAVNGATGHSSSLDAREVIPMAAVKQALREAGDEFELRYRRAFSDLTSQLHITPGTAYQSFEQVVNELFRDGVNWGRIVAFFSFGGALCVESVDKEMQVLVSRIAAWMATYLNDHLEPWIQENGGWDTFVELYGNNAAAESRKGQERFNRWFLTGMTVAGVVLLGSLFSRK
T1 sequence (P10415 whole entry): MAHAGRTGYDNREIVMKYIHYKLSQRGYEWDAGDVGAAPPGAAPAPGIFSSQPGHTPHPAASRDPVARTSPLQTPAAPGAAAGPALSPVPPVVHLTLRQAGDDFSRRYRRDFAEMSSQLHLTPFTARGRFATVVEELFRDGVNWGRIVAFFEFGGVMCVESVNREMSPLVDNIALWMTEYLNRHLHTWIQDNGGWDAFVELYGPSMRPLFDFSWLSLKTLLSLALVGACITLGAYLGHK

normalized BCL-2 protein content (BCL-2; [3]): 116 and 103 | normalized BCL-2 protein content (BCL-2; concentration 0.01): 119 and 99 | normalized BCL-2 protein content (BCL-2; concentration 0.03): 113 and 104 | normalized BCL-2 protein content (BCL-2; concentration 0.1): 114 and 109 | normalized BCL-2 protein content (BCL-2; concentration 0.3): 119 and 101 | normalized BCL-2 protein content (BCL-2; concentration 1): 102 and 95 | normalized BCL-2 protein content (BCL-2; concentration 3): 97 and 102 | BCL-xL degradation (in words) (BCL-xL; 293T cells): could degrade BCL-xL | normalized BCL-xL protein content (BCL-xL; [3]): 88 and 95 | normalized BCL-xL protein content (BCL-xL; concentration 0.01): 85 and 86 | normalized BCL-xL protein content (BCL-xL; concentration 0.03): 76 and 80 | normalized BCL-xL protein content (BCL-xL; concentration 0.1): 67 and 65 | normalized BCL-xL protein content (BCL-xL; concentration 0.3): 32 and 40 | normalized BCL-xL protein content (BCL-xL; concentration 1): 32 and 31 | normalized BCL-xL protein content (BCL-xL; concentration 3): 22 and 19
SMILES: CN(CCOCCOCCOCCNc1cccc2c1C(=O)N(C1CCC(=O)NC1=O)C2=O)CC[C@H](CSc1ccccc1)Nc1ccc(S(=O)(=O)NC(=O)c2ccc(N3CCN(CC4=C(c5ccc(Cl)cc5)CCC(C)(C)C4)CC3)cc2)cc1S(=O)(=O)C(F)(F)F (some centres unmarked) [XZ739, reference compound]
intracellular ternary complex formation with BCL-2 (in words) [1]: formed cellular ternary complexes with both BCL-xL and BCL-2 | intracellular ternary complex formation with BCL-xL (in words) [2]: formed cellular ternary complexes with both BCL-xL and BCL-2
